Experimental data reported in patent US10538555B2, “Macrocyclic inhibitors of the PD-1/PD-L1 and CD80(B7-1)/PD-L1 protein/protein interactions” (BRISTOL-MYERS SQUIBB COMPANY, priority 2014, dated 2020).
*1 amine or outer side, *2 acyl side, *3 side chain or, on linkers, in order; H or OH if unused. Where a SMILES comes first, the peptide text is derived from it. Bridges are numbered along the chain shown (N, C = ends). [ ]: non-standard residue; d: D form. ξ: configuration not given here. X5 = O=C(O)CC[C@H](N[*:1])C(=O)C1C[C@H](O)C[C@H]1C(=O)[*:2]; Trp(1-CH2COOH) = N[C@@H](Cc1cn(CC(=O)O)c2ccccc12)C(=O)O; Phe(3,4,5-F3) = N[C@@H](Cc1cc(F)c(F)c(F)c1)C(=O)O; Phe(3,4-F2) = N[C@@H](Cc1ccc(F)c(F)c1)C(=O)O; Phe(4-Cl) = N[C@@H](Cc1ccc(Cl)cc1)C(=O)O; Phe(4-F) = N[C@@H](Cc1ccc(F)cc1)C(=O)O; d(cisHyp) = O=C(O)[C@H]1C[C@@H](O)CN1; Hyp = O=C(O)[C@@H]1C[C@@H](O)CN1; NMeF = CN[C@@H](Cc1ccccc1)C(=O)O; dNMeF = CN[C@H](Cc1ccccc1)C(=O)O; NMehSer = CN[C@@H](CCO)C(=O)O; NMeNle = CCCC[C@H](NC)C(=O)O; d(hSer) = N[C@H](CCO)C(=O)O; dPip = O=C(O)[C@H]1CCCCN1; hSer = N[C@@H](CCO)C(=O)O; NMeA = CN[C@@H](C)C(=O)O; Orn = NCCC[C@H](N)C(=O)O; Dab = NCC[C@H](N)C(=O)O; Dap = NC[C@H](N)C(=O)O; ξC = NC(CS)C(=O)O

Molecular target: T1, Human PD-L1/PD-1 (Homo sapiens, UniProt Q9NZQ7)
T1 construct: TVMV protease cleavage site (C); made in house; host or cells: HEK293T cells
Test: HTRF Human PD-L1/PD-1 binding assay (PD-1-Ig/PD-L1-His)
Conditions: PD-L1-His 10 nM, PD-1-Ig 20 nM; class symbol; read-out: HTRF Human PD-L1/PD-1 Binding Assay IC50 Range
In short: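 HTRF read-out (665/620 nm ratio) after 30 min equilibration with Eu-cryptate anti-Ig mAb (1 nM) and APC anti-His mAb (20 nM). Peptides preincubated 15 min with PD-L1-His (10 nM), then PD-1-Ig (20 nM) added for 15 min.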

T1 sequence (Q9NZQ7 with tags, fused parts or gaps): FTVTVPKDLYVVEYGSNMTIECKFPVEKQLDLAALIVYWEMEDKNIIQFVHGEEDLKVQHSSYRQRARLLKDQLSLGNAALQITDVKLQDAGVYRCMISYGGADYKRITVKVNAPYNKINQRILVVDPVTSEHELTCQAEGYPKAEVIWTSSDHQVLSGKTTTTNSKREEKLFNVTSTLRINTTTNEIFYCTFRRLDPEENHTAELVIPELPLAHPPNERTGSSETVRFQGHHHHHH

IC50	SMILES
100 to 990 nM	CCCC[C@H]1C(=O)N(C)[C@@H](CCCC)C(=O)N[C@@H](CCC(=O)O)C(=O)NC(C(=O)NCC(N)=O)CSCC(=O)N[C@@H](Cc2ccc(O)cc2)C(=O)N(C)[C@@H](C)C(=O)N[C@@H](CC(N)=O)C(=O)N2CCC[C@H]2C(=O)N[C@@H](CC(N)=O)C(=O)N[C@@H](CC(C)C)C(=O)N2C[C@H](O)C[C@H]2C(=O)N[C@@H](Cc2c[nH]c3ccccc23)C(=O)N[C@@H](CC(=O)O)C(=O)N[C@@H](Cc2c[nH]c3ccccc23)C(=O)N1C (some centres unmarked) [Example 9173] ({CH2CO}-Y[NMeA]NPNL[Hyp]WDW[NMeNle][NMeNle]E[ξC]G-NH2; thioether N-14)
10 to 99.9 nM	CCCC[C@H]1C(=O)N(C)[C@@H](CCCC)C(=O)N[C@@H](CCC(=O)O)C(=O)NC(C(=O)NCC(N)=O)CSCC(=O)N[C@@H](Cc2ccc(O)cc2)C(=O)N(C)[C@@H](C)C(=O)N[C@@H](CC(N)=O)C(=O)N2CCC[C@H]2C(=O)N[C@@H](Cc2c[nH]cn2)C(=O)N[C@@H](CC(N)=O)C(=O)N2CCC[C@H]2C(=O)N[C@@H](Cc2c[nH]c3ccccc23)C(=O)N[C@@H](CO)C(=O)N[C@@H](Cc2c[nH]c3ccccc23)C(=O)N1C (some centres unmarked) [Example 9170] ({CH2CO}-Y[NMeA]NPHNPWSW[NMeNle][NMeNle]E[ξC]G-NH2; thioether N-14)
100 to 990 nM	CCCC[C@H]1C(=O)N2CCC[C@@H]2C(=O)N[C@@H](CC(=O)O)C(=O)N[C@@H](C(C)C)C(=O)N(C)[C@@H](CCOC)C(=O)N[C@@H](Cc2ccc(O)cc2)C(=O)N2CCCC[C@@H]2C(=O)N[C@@H](Cc2c[nH]c3ccccc23)C(=O)N[C@@H](Cc2ccc(O)cc2)C(=O)N[C@@H](CC(C)C)C(=O)N[C@H](C(=O)NCC(N)=O)CSCC(=O)N[C@@H](Cc2ccc(F)cc2)C(=O)N(C)[C@@H](Cc2ccccc2)C(=O)N1C [Example 9220] ({CH2CO}-[Phe(4-F)][NMeF][NMeNle][dP]DV[NMehSer](Me)Y[dPip]WYLCG-NH2; thioether N-13)
10 to 99.9 nM	CCCC[C@H]1C(=O)N(C)[C@@H](CCCC)C(=O)N[C@@H](CCCNC(=N)N)C(=O)NC(C(=O)NCC(N)=O)CSCC(=O)N[C@@H](Cc2ccc(O)cc2)C(=O)N(C)[C@@H](C)C(=O)N[C@@H](CC(N)=O)C(=O)N2CCC[C@H]2C(=O)N[C@@H](Cc2cnc[nH]2)C(=O)N[C@H](CCO)C(=O)N2C[C@H](O)C[C@H]2C(=O)N[C@@H](Cc2c[nH]c3ccccc23)C(=O)N[C@@H](CO)C(=O)N[C@@H](Cc2c[nH]c3ccccc23)C(=O)N1C (some centres unmarked) [Example 9125] ({CH2CO}-Y[NMeA]NPH[d(hSer)][Hyp]WSW[NMeNle][NMeNle]R[ξC]G-NH2; thioether N-14)
1 to 9.9 nM	CCCC[C@H]1C(=O)N(C)[C@@H](CCCC)C(=O)N[C@@H](CCC(=O)O)C(=O)N[C@H](C(=O)NCC(N)=O)CSCC(=O)N[C@@H](Cc2ccc(O)cc2)C(=O)N(C)[C@@H](C)C(=O)N[C@@H](CC(=O)O)C(=O)N2CCC[C@H]2C(=O)N[C@@H](CO)C(=O)N[C@@H](CC(C)C)C(=O)N2C[C@H](O)C[C@H]2C(=O)N[C@@H](Cc2c[nH]c3ccccc23)C(=O)N[C@@H](CCN)C(=O)N[C@@H](Cc2cn(CC(=O)O)c3ccccc23)C(=O)N1C [Example 6135] ({CH2CO}-Y[NMeA]DPSL[Hyp]W[Dab][Trp(1-CH2COOH)][NMeNle][NMeNle]ECG-NH2; thioether N-14)
1 to 9.9 nM	CCCC[C@H]1C(=O)N(C)[C@@H](CCCC)C(=O)N[C@@H](CCCNC(=N)N)C(=O)N[C@H](C(=O)NCC(N)=O)CSCC(=O)N[C@@H](Cc2ccc(Cl)cc2)C(=O)N(C)[C@@H](C)C(=O)N[C@@H](CC(N)=O)C(=O)N2CCC[C@H]2C(=O)N[C@@H](Cc2cnc[nH]2)C(=O)N[C@@H](CCC(=O)O)C(=O)C2C[C@H](O)C[C@H]2C(=O)N[C@@H](Cc2c[nH]c3ccccc23)C(=O)N[C@@H](CCN)C(=O)N[C@@H](Cc2c[nH]c3ccccc23)C(=O)N1C (some centres unmarked) [Example 7079] ({CH2CO}-[Phe(4-Cl)][NMeA]NPH[X5]W[Dab]W[NMeNle][NMeNle]RCG-NH2; thioether N-13)
1 to 9.9 nM	CCCC[C@H]1C(=O)N(C)[C@@H](CCCC)C(=O)NCC(=O)N[C@H](C(=O)NCC(N)=O)CSCC(=O)N[C@@H](Cc2ccc(O)cc2)C(=O)N(C)[C@@H](C)C(=O)N[C@@H](CC(N)=O)C(=O)N2CCC[C@H]2C(=O)NCC(=O)N[C@@H](CCC(N)=O)C(=O)N2C[C@H](O)C[C@H]2C(=O)N[C@@H](Cc2c[nH]c3ccccc23)C(=O)NCC(=O)N[C@@H](Cc2c[nH]c3ccccc23)C(=O)N1C [Example 5219] ({CH2CO}-Y[NMeA]NPGQ[Hyp]WGW[NMeNle][NMeNle]GCG-NH2; thioether N-14)
1 to 9.9 nM	CCCC[C@H]1C(=O)N(C)[C@@H](CCCC)C(=O)N[C@@H](CCC(=O)O)C(=O)N[C@H](C(=O)NCC(N)=O)CSCC(=O)N[C@@H](Cc2ccc(O)cc2)C(=O)N(C)[C@@H](C)C(=O)N[C@@H](CC(=O)O)C(=O)N2CCC[C@H]2C(=O)N[C@@H](CN)C(=O)N[C@@H](CCC(N)=O)C(=O)N2C[C@H](O)C[C@H]2C(=O)N[C@@H](Cc2c[nH]c3ccccc23)C(=O)N[C@@H](CCN)C(=O)N[C@@H](Cc2c[nH]c3ccccc23)C(=O)N1C [Example 5200] ({CH2CO}-Y[NMeA]DP[Dap]Q[Hyp]W[Dab]W[NMeNle][NMeNle]ECG-NH2; thioether N-14)
1 to 9.9 nM	CCCC[C@H]1C(=O)N2CCC[C@@H]2C(=O)N[C@@H](CC(=O)O)C(=O)N[C@@H](C(C)C)C(=O)N(C)[C@@H](Cc2ccccc2)C(=O)N[C@@H](Cc2ccc(O)cc2)C(=O)N2C[C@H](O)C[C@@H]2C(=O)N[C@@H](Cc2c[nH]c3ccccc23)C(=O)N[C@@H](Cc2ccc(O)cc2)C(=O)N[C@@H](CCOC)C(=O)N[C@H](C(=O)NCC(N)=O)CSCC(=O)N[C@@H](Cc2cc(F)c(F)c(F)c2)C(=O)N(C)[C@@H](Cc2ccccc2)C(=O)N1C [Example 10181] ({CH2CO}-[Phe(3,4,5-F3)][NMeF][NMeNle][dP]DV[NMeF]Y[d(cisHyp)]WY[hSer](Me)CG-NH2; thioether N-13)
10 to 99.9 nM	CCCC[C@H]1C(=O)N(C)[C@@H](CCCC)C(=O)N[C@@H](CCCNC(=N)N)C(=O)NC(C(=O)NCC(N)=O)CSCC(=O)N[C@@H](Cc2ccc(O)cc2)C(=O)N(C)[C@@H](C)C(=O)N[C@@H](CC(N)=O)C(=O)N2CCC[C@H]2C(=O)N[C@@H](CC(N)=O)C(=O)N[C@@H](CC(N)=O)C(=O)N2C[C@H](O)C[C@H]2C(=O)N[C@@H](Cc2c[nH]c3ccccc23)C(=O)N[C@@H](CO)C(=O)N[C@@H](Cc2c[nH]c3ccccc23)C(=O)N1C (some centres unmarked) [Example 10014] ({CH2CO}-Y[NMeA]NPNN[Hyp]WSW[NMeNle][NMeNle]R[ξC]G-NH2; thioether N-14)
1 to 9.9 nM	CCCC[C@H]1C(=O)N2C[C@H](O)C[C@@H]2C(=O)N[C@@H](CC(=O)O)C(=O)N[C@@H](C(C)C)C(=O)N(C)[C@H](Cc2ccccc2)C(=O)N[C@@H](CCCN)C(=O)N2C[C@H](O)C[C@@H]2C(=O)N[C@@H](Cc2c[nH]c3ccccc23)C(=O)N[C@@H](Cc2ccc(O)cc2)C(=O)N[C@@H](CC(C)C)C(=O)N[C@H](C(=O)NCC(N)=O)CSCC(=O)N[C@@H](Cc2ccc(F)c(F)c2)C(=O)N(C)[C@@H](Cc2ccccc2)C(=O)N1C [Example 9297] ({CH2CO}-[Phe(3,4-F2)][NMeF][NMeNle][d(cisHyp)]DV[dNMeF][Orn][d(cisHyp)]WYLCG-NH2; thioether N-13)
